Test results from patent US12558428B2, “Heterobifunctional compounds and their use in treating disease” (Halda Therapeutics OpCo, Inc., priority 2024, dated 2026).

What follows are compounds tested on T-Rex 293 cells lacking increased expression of estrogen receptor alpha protein (assay: Cellular growth inhibition assay, T-Rex 293 cells, (−) doxycycline). Conditions: T-REx-293, 72 h, Table 7-A; T-Rex 293 cells without doxycycline (lacking increased ERα expression); 72 hours; CellTiter-Glo; read-out: (−) Dox GI50.
Type: cell-based
Procedure, shortened: (§1)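 Viability read-out was CellTiter-Glo 2.0 luminescence after 72 h compound exposure, normalized to zero luminescence and fitted by four-parameter regression to give GI50. Cells were an ERα-inducible T-Rex 293 clone cultured with or without 3 ng/mL doxycycline in charcoal-stripped, phenol red-free medium.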

`Cc1cc(C2=N[C@@H](C)c3nnc(C)n3-c3sc(C)c(C)c32)ccc1N1CC(CN2CCN(CC3CN(c4ccc(C5=C(c6ccc(Cl)cc6)CCCc6cc(C(=O)O)ccc65)cc4)C3)CC2)C1` [IV-64] and `CC1=C(c2c(F)cc(F)cc2F)C(c2ccc(OCCN3CCCN(c4ccc(C5=N[C@@H](C)c6nnc(C)n6-c6sc(C)c(C)c65)cc4)CC3)cc2)Oc2ccc(O)cc21` (stereo partly drawn) [V-6] fall in the same range of GI50: 500 to 2500 nM for the first, 500 to 2500 nM for the second.

`COc1ccc(-c2sc3cc(OC)ccc3c2C(=O)c2ccc(OCCN3CCC(CCCCOc4ccc(C5=N[C@@H](Cc6ncco6)c6nnc(C)n6-c6sc(C)c(C)c65)cc4)CC3)cc2)cc1` [V-1] and `COc1ccc(-c2sc3cc(OC)ccc3c2C(=O)c2ccc(OCCN3CCC(CCOc4ccc(C5=N[C@@H](Cc6ncco6)c6nnc(C)n6-c6sc(C)c(C)c65)cc4)CC3)cc2)cc1` [V-3] fall in the same range of GI50: 50 to 500 nM for the first, 50 to 500 nM for the second.

`CC1=C(c2c(F)cc(F)cc2F)[C@@H](c2ccc(OCCN3CCCC4(CCN(c5ccc(C6=N[C@@H](C)c7nnc(C)n7-c7sc(C)c(C)c76)cc5)CC4)C3)cc2)Oc2ccc(O)cc21` [V-4] and `CC1=C(c2c(F)cc(F)cc2F)[C@H](c2ccc(OCCN3CCCC4(CCN(c5ccc(C6=N[C@@H](C)c7nnc(C)n7-c7sc(C)c(C)c76)cc5)CC4)C3)cc2)Oc2ccc(O)cc21` [V-5] fall in the same range of GI50: 500 to 2500 nM for the first, 500 to 2500 nM for the second.

Compound `CC1=C(c2c(F)cc(F)cc2F)[C@H](c2ccc(OCCN3CCC[C@]4(CCN(c5ccc(C6=N[C@@H](C)c7nnc(C)n7-c7sc(C)c(C)c76)cc5)C4)C3)cc2)Oc2ccc(O)cc21` [V-7] has a GI50 of 50 to 500 nM.

Same assay, conditions: T-REx-293, 72 h, Table 7-B; T-Rex 293 cells without doxycycline (lacking increased ERα expression); 72 hours; CellTiter-Glo; read-out: (−) Dox GI50

Compound `COc1cc(N2CCN(CC3(O)CCN(c4ccc(C5=N[C@@H](C)c6nnc(C)n6-c6sc(C)c(C)c65)cc4)CC3)CC2)ccc1C1=C(c2ccccc2Cl)CCCc2cc(C(=O)O)ccc21` [IV-65] has a GI50 of 500 to 2500 nM.

Same assay, conditions: Table 7-A; T-Rex 293 cells without doxycycline (lacking increased ERα expression); 72 hours; CellTiter-Glo; read-out: (−) Dox GI50

`COc1ccc(-c2sc3cc(OC)ccc3c2C(=O)c2ccc(OCCN3CCC4(CC3)CC(Oc3ccc(C5=N[C@@H](Cc6ncco6)c6nnc(C)n6-c6sc(C)c(C)c65)cc3)C4)cc2)cc1` [V-2] showed a GI50 of 500 to 2500 nM.

Each compound was assayed on MCF7 cells (ATCC #HTB-22) (assay: Cellular growth inhibition assay, MCF7 cells purchased from ATCC). Conditions: Homo sapiens, MCF7, 144 h, Table 8-A; MCF7 cells purchased from ATCC; six days; CellTiter-Glo; read-out: GI50.
Type: cell-based
Procedure, shortened: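 MCF7 cells in RPMI 1640 with 10% FBS and 0.2 U/ml insulin, seeded at 1,500 cells/well (ATCC) or 225 cells/well (ECACC). Compounds added 24 h later, then 6 days at 37° C. Viability by CellTiter-Glo 2.0 luminescence. GI50 from four-parameter fit.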

Compared with `Cc1cc(C2=N[C@@H](C)c3nnc(C)n3-c3sc(C)c(C)c32)ccc1N1CC(CN2CCN(CC3CN(c4ccc(C5=C(c6ccc(Cl)cc6)CCCc6cc(C(=O)O)ccc65)cc4)C3)CC2)C1` [IV-64], `COc1cc(N2CCN(CC3(O)CCN(c4ccc(C5=N[C@@H](C)c6nnc(C)n6-c6sc(C)c(C)c65)cc4)CC3)CC2)ccc1C1=C(c2ccccc2Cl)CCCc2cc(C(=O)O)ccc21` [IV-65] is higher in GI50: < 50 nM for the first, 50 to 500 nM for the second.

`COc1ccc(-c2sc3cc(OC)ccc3c2C(=O)c2ccc(OCCN3CCC(CCCCOc4ccc(C5=N[C@@H](Cc6ncco6)c6nnc(C)n6-c6sc(C)c(C)c65)cc4)CC3)cc2)cc1` [V-1] and `COc1ccc(-c2sc3cc(OC)ccc3c2C(=O)c2ccc(OCCN3CCC(CCOc4ccc(C5=N[C@@H](Cc6ncco6)c6nnc(C)n6-c6sc(C)c(C)c65)cc4)CC3)cc2)cc1` [V-3] fall in the same range of GI50: 50 to 500 nM for the first, 50 to 500 nM for the second.

`CC1=C(c2c(F)cc(F)cc2F)[C@@H](c2ccc(OCCN3CCCC4(CCN(c5ccc(C6=N[C@@H](C)c7nnc(C)n7-c7sc(C)c(C)c76)cc5)CC4)C3)cc2)Oc2ccc(O)cc21` [V-4] and `CC1=C(c2c(F)cc(F)cc2F)[C@H](c2ccc(OCCN3CCCC4(CCN(c5ccc(C6=N[C@@H](C)c7nnc(C)n7-c7sc(C)c(C)c76)cc5)CC4)C3)cc2)Oc2ccc(O)cc21` [V-5] fall in the same range of GI50: 50 to 500 nM for the first, 50 to 500 nM for the second.

`CC1=C(c2c(F)cc(F)cc2F)C(c2ccc(OCCN3CCCN(c4ccc(C5=N[C@@H](C)c6nnc(C)n6-c6sc(C)c(C)c65)cc4)CC3)cc2)Oc2ccc(O)cc21` (stereo partly drawn) [V-6] and `CC1=C(c2c(F)cc(F)cc2F)[C@H](c2ccc(OCCN3CCC[C@]4(CCN(c5ccc(C6=N[C@@H](C)c7nnc(C)n7-c7sc(C)c(C)c76)cc5)C4)C3)cc2)Oc2ccc(O)cc21` [V-7] fall in the same range of GI50: 50 to 500 nM for the first, 50 to 500 nM for the second.

Same assay, conditions: Table 8-A; MCF7 cells purchased from ATCC; six days; CellTiter-Glo; read-out: GI50

`COc1ccc(-c2sc3cc(OC)ccc3c2C(=O)c2ccc(OCCN3CCC4(CC3)CC(Oc3ccc(C5=N[C@@H](Cc6ncco6)c6nnc(C)n6-c6sc(C)c(C)c65)cc3)C4)cc2)cc1` [V-2] showed a GI50 of 50 to 500 nM.

What follows are compounds tested on T-Rex 293 cells having increased expression of estrogen receptor alpha protein (assay: Cellular growth inhibition assay, T-Rex 293 cells, (+) doxycycline). Conditions: T-REx-293, 72 h, Table 7-A; T-Rex 293 cells with doxycycline (increased ERα expression); 72 hours; CellTiter-Glo; read-out: (+) Dox GI50.
Type: cell-based
Procedure, shortened: as §1

`Cc1cc(C2=N[C@@H](C)c3nnc(C)n3-c3sc(C)c(C)c32)ccc1N1CC(CN2CCN(CC3CN(c4ccc(C5=C(c6ccc(Cl)cc6)CCCc6cc(C(=O)O)ccc65)cc4)C3)CC2)C1` [IV-64] and `CC1=C(c2c(F)cc(F)cc2F)C(c2ccc(OCCN3CCCN(c4ccc(C5=N[C@@H](C)c6nnc(C)n6-c6sc(C)c(C)c65)cc4)CC3)cc2)Oc2ccc(O)cc21` (stereo partly drawn) [V-6] fall in the same range of GI50: 50 to 500 nM for the first, 50 to 500 nM for the second.

`COc1ccc(-c2sc3cc(OC)ccc3c2C(=O)c2ccc(OCCN3CCC(CCCCOc4ccc(C5=N[C@@H](Cc6ncco6)c6nnc(C)n6-c6sc(C)c(C)c65)cc4)CC3)cc2)cc1` [V-1] and `COc1ccc(-c2sc3cc(OC)ccc3c2C(=O)c2ccc(OCCN3CCC(CCOc4ccc(C5=N[C@@H](Cc6ncco6)c6nnc(C)n6-c6sc(C)c(C)c65)cc4)CC3)cc2)cc1` [V-3] fall in the same range of GI50: 50 to 500 nM for the first, 50 to 500 nM for the second.

First: CC1=C(c2c(F)cc(F)cc2F)[C@@H](c2ccc(OCCN3CCCC4(CCN(c5ccc(C6=N[C@@H](C)c7nnc(C)n7-c7sc(C)c(C)c76)cc5)CC4)C3)cc2)Oc2ccc(O)cc21 [V-4]
Second: CC1=C(c2c(F)cc(F)cc2F)[C@H](c2ccc(OCCN3CCCC4(CCN(c5ccc(C6=N[C@@H](C)c7nnc(C)n7-c7sc(C)c(C)c76)cc5)CC4)C3)cc2)Oc2ccc(O)cc21 [V-5]
The GI50 of the first is higher: 500 to 2500 nM for the first, 50 to 500 nM for the second.

For `CC1=C(c2c(F)cc(F)cc2F)[C@H](c2ccc(OCCN3CCC[C@]4(CCN(c5ccc(C6=N[C@@H](C)c7nnc(C)n7-c7sc(C)c(C)c76)cc5)C4)C3)cc2)Oc2ccc(O)cc21` [V-7], the GI50 was < 50 nM.

Same assay, conditions: T-REx-293, 72 h, Table 7-B; T-Rex 293 cells with doxycycline (increased ERα expression); 72 hours; CellTiter-Glo; read-out: (+) Dox GI50

In the case of `COc1cc(N2CCN(CC3(O)CCN(c4ccc(C5=N[C@@H](C)c6nnc(C)n6-c6sc(C)c(C)c65)cc4)CC3)CC2)ccc1C1=C(c2ccccc2Cl)CCCc2cc(C(=O)O)ccc21` [IV-65], the GI50 is reported as < 50 nM.

Same assay, conditions: Table 7-A; T-Rex 293 cells with doxycycline (increased ERα expression); 72 hours; CellTiter-Glo; read-out: (+) Dox GI50

`COc1ccc(-c2sc3cc(OC)ccc3c2C(=O)c2ccc(OCCN3CCC4(CC3)CC(Oc3ccc(C5=N[C@@H](Cc6ncco6)c6nnc(C)n6-c6sc(C)c(C)c65)cc3)C4)cc2)cc1` [V-2] showed a GI50 of 50 to 500 nM.
